In US9603364B2 (Dow AgroSciences LLC, priority 2013, dated 2017):

Experiments:
Experiment in all cases: General post-emergent herbicidal activity, foliar application
Type in all cases: in vivo
Oryza sativa L. (rice) = conditions: scored after 14 days; for plant injury at 35 g/ha / plant injury at 70 g/ha / plant injury at 140 g/ha / plant injury at 280 g/ha: Oryza sativa, 336 h, read-out: % Visual Growth Reduction ORYSA; for plant injury at 70 g/ha: 70 g ai/ha; for plant injury at 140 g/ha: 140 g ai/ha; for plant injury at 280 g/ha: 280 g ai/ha
Protocol: (§1) A weighed amount, determined by the highest rate to be tested, of each test compound was placed in a 25 mL glass vial and was dissolved in 4 mL of a 97:3 v/v (volume/volume) mixture of acetone and dimethyl sulfoxide to obtain concentrated stock solutions which will be referred to as General Purpose Solvent. […] The concentrated stock solutions obtained were diluted with 20 mL of an aqueous mixture containing water, General Purpose Solvent, isopropyl alcohol, Atplus 411F crop oil concentrate, and Triton X-155 surfactant in a 46:42:12:1.0:0.02 v/v ratio to obtain spray solutions containing the highest application rates. Additional application rates were obtained by serial dilution of 12 mL of the high rate solution into a solution containing 2 mL of 97:3 v/v (volume/volume) mixture of acetone and dimethyl sulfoxide and 10 mL of an aqueous mixture containing water, General Purpose Solvent, isopropyl alcohol, Atplus 411F crop oil concentrate, and Triton X-155 surfactant in a 46:42:12:1.0:0.02 v/v ratio to obtain 1/2×, 1/4×, 1/8× and 1/16× rates of the high rate. […] Control plants were sprayed in the same manner with the solvent blank.
(§2) The treated plants and control plants were placed in a greenhouse as described above and watered by sub-irrigation to prevent wash-off of the test compounds. After 14 days, the condition of the test plants as compared with that of the untreated plants was determined visually and scored on a scale of 0 to 100 percent where 0 corresponds to no injury and 100 corresponds to complete kill.

Zea mays L. (corn) = conditions: 336 h, scored after 14 days, read-out: % Visual Growth Reduction ZEAMX; for plant injury at 35 g/ha: 35 g ai/ha; for plant injury at 70 g/ha: 70 g ai/ha; for plant injury at 140 g/ha: 140 g ai/ha; for plant injury at 280 g/ha: 280 g ai/ha
Protocol: as §1, §2

[1] = system: Viola tricolor L. (pansy); conditions: for pest or weed control at 70 g/ha: 70 g ai/ha; for pest or weed control at 140 g/ha: 140 g ai/ha; for pest or weed control at 280 g/ha: 280 g ai/ha; for GR80 Value VIOTR: calculated by probit analysis, may be extrapolated
Protocol: as §1, §2
(§3) By applying the well-accepted probit analysis as described by J. Berkson in […], 48, 565 (1953) and by D. Finney in “Probit Analysis” Cambridge University Press (1952), the dose response data gathered as expressed above can be used to calculate GR20, GR50 and GR80 values, which are defined as growth reduction factors that correspond to the effective dose of herbicide required to kill or control 20 percent, 50 percent or 80 percent, respectively, of a target plant. Data not expressed in Table A may have been used to calculate some of the GR80 values in Table B. In some cases, the GR80 values may be extrapolations calculated based on the slope of the dose response curve for individual compounds listed in Table B.

[2] = system: Helianthus annuus L. (sunflower, common); conditions: for pest or weed control at 70 g/ha: 70 g ai/ha; for pest or weed control at 140 g/ha: 140 g ai/ha; for pest or weed control at 280 g/ha: 280 g ai/ha; for GR80 Value HELAN: calculated by probit analysis, dose for 80% visual injury, may be extrapolated
Protocol: as §1, §2, §3

[3] = system: Chenopodium album L. (lambsquarters, common); conditions: for pest or weed control at 35 g/ha / pest or weed control at 70 g/ha / pest or weed control at 140 g/ha / pest or weed control at 280 g/ha: Chenopodium album, 336 h, foliar post-emergent, scored after 14 days, read-out: % Visual Growth Reduction CHEAL; for pest or weed control at 35 g/ha: 35 g ai/ha; for pest or weed control at 70 g/ha: 70 g ai/ha; for pest or weed control at 140 g/ha: 140 g ai/ha; for pest or weed control at 280 g/ha: 280 g ai/ha; for GR80 Value CHEAL: calculated by probit analysis, dose for 80% visual injury, may be extrapolated
Protocol: as §1, §2, §3

[4] = system: Euphorbia heterophylla L. (poinsettia, wild); conditions: for pest or weed control at 35 g/ha / pest or weed control at 70 g/ha / pest or weed control at 140 g/ha / pest or weed control at 280 g/ha: Euphorbia heterophylla, 336 h, foliar post-emergent, scored after 14 days, read-out: % Visual Growth Reduction EPHHL; for pest or weed control at 35 g/ha: 35 g ai/ha; for pest or weed control at 70 g/ha: 70 g ai/ha; for pest or weed control at 140 g/ha: 140 g ai/ha; for pest or weed control at 280 g/ha: 280 g ai/ha; for GR80 Value EPHHL: calculated by probit analysis, dose for 80% visual injury, may be extrapolated
Protocol: as §1, §2, §3

[5] = system: Amaranthus retroflexus L. (pigweed, redroot); conditions: for pest or weed control at 70 g/ha: 70 g ai/ha; for pest or weed control at 280 g/ha: 280 g ai/ha; for GR80 Value AMARE: calculated by probit analysis, dose for 80% visual injury, may be extrapolated
Protocol: as §1, §2, §3

[6] = system: Echinochloa crus-galli (L.) Beauv. (barnyardgrass); conditions: for pest or weed control at 35 g/ha / pest or weed control at 70 g/ha / pest or weed control at 140 g/ha / pest or weed control at 280 g/ha: Echinochloa crus-galli, 336 h, foliar post-emergent, scored after 14 days, read-out: % Visual Growth Reduction ECHCG; for pest or weed control at 35 g/ha: 35 g ai/ha; for pest or weed control at 70 g/ha: 70 g ai/ha; for pest or weed control at 140 g/ha: 140 g ai/ha; for pest or weed control at 280 g/ha: 280 g ai/ha; for GR80 Value ECHCG: calculated by probit analysis, may be extrapolated
Protocol: as §1, §2, §3

[7] = Viola tricolor, 336 h, foliar post-emergent, scored after 14 days, read-out: % Visual Growth Reduction VIOTR
[8] = Helianthus annuus, 336 h, foliar post-emergent, scored after 14 days, read-out: % Visual Growth Reduction HELAN
[9] = Amaranthus retroflexus, 336 h, foliar post-emergent, scored after 14 days, read-out: % Visual Growth Reduction AMARE
[10] = Amaranthus retroflexus, 336 h, 140 g ai/ha, foliar post-emergent, scored after 14 days, read-out: % Visual Growth Reduction AMARE
[11] = calculated, dose for 80% visual injury, prior art tables

Row | Compound | plant injury at 140 g/ha (Oryza sativa L. (rice)) [%] | plant injury at 280 g/ha (Oryza sativa L. (rice)) [%] | plant injury at 140 g/ha (Zea mays L. (corn)) [%] | plant injury at 280 g/ha (Zea mays L. (corn)) [%] | pest or weed control at 140 g/ha [1, 7] [%] | pest or weed control at 280 g/ha [1, 7] [%] | GR80 Value VIOTR ([1]; dose for 80% visual injury) [g ai/ha] | pest or weed control at 140 g/ha [2, 8] [%] | pest or weed control at 280 g/ha [2, 8] [%] | GR80 Value HELAN [2] [g ai/ha] | pest or weed control at 70 g/ha [3] [%] | pest or weed control at 140 g/ha [3] [%] | pest or weed control at 280 g/ha [3] [%] | GR80 Value CHEAL [3] [g ai/ha] | pest or weed control at 140 g/ha [4] [%] | pest or weed control at 280 g/ha [4] [%] | pest or weed control at 140 g/ha [5, 10] [%] | pest or weed control at 280 g/ha [5, 9] [%] | pest or weed control at 140 g/ha [6] [%] | pest or weed control at 280 g/ha [6] [%] | further results
1 | COC(=O)c1nc(CF)c(Cl)c(N)c1Cl [Compound F1, Methyl 4-amino-3,5-dichloro-6-(fluoromethyl)picolinate] | 0 | 0 | 0 | 0 | 10 | 10 | >280 | 100 | 100 | <17.5 | 90 | 90 | 90 | 17.5 | 100 | 100 | 80 | 90 | 0 | 0 | plant injury at 35 g/ha (Oryza sativa L. (rice); 35 g ai/ha): 0%; plant injury at 70 g/ha (Oryza sativa L. (rice)): 0%; plant injury at 35 g/ha (Zea mays L. (corn)): 0%; plant injury at 70 g/ha (Zea mays L. (corn)): 0%; pest or weed control at 35 g/ha ([1]; Viola tricolor, 336 h, 35 g ai/ha, foliar post-emergent, scored after 14 days, read-out: % Visual Growth Reduction VIOTR): 0%; pest or weed control at 70 g/ha [1, 7]: 0%; pest or weed control at 35 g/ha ([2]; Helianthus annuus, 336 h, 35 g ai/ha, foliar post-emergent, scored after 14 days, read-out: % Visual Growth Reduction HELAN): 100%; pest or weed control at 70 g/ha [2, 8]: 100%; pest or weed control at 35 g/ha [3]: 90%; pest or weed control at 35 g/ha [4]: 100%; pest or weed control at 70 g/ha [4]: 100%; GR80 Value EPHHL [4]: 26.2 g ai/ha; pest or weed control at 35 g/ha ([5]; Amaranthus retroflexus, 336 h, 35 g ai/ha, foliar post-emergent, scored after 14 days, read-out: % Visual Growth Reduction AMARE): 55%; pest or weed control at 70 g/ha [5, 9]: 60%; GR80 Value AMARE [5]: 142 g ai/ha; pest or weed control at 35 g/ha [6]: 0%; pest or weed control at 70 g/ha [6]: 0%; GR80 Value ECHCG ([6]; dose for 80% visual injury): >280 g ai/ha
2 | COC(=O)c1nc(CC(F)F)c(F)c(N)c1Cl [Compound F2, methyl 4-amino-3-chloro-6-(2,2-difluoroethyl)-5-fluoropicolinate] | 0 |  | 0 |  | 0 |  | >140 | 80 |  | 80.8 |  | 90 |  | 103 | 100 |  | 100 |  | 0 |  | GR80 Value EPHHL [4]: 114 g ai/ha; GR80 Value AMARE [5]: 103 g ai/ha; GR80 Value ECHCG ([6]; dose for 80% visual injury): >140 g ai/ha
3 | COC(=O)c1nc(C(F)F)c(F)c(N)c1Cl [Compound F3, methyl 4-amino-3-chloro-6-(difluoromethyl)-5-fluoropicolinate] | 0 | 0 | 0 | 10 | 5 | 10 | >280 | 90 | 90 | 32.5 | 100 | 100 | 100 | <17.5 | 75 | 85 | 50 | 90 | 0 | 10 | plant injury at 70 g/ha (Oryza sativa L. (rice)): 0%; plant injury at 70 g/ha (Zea mays L. (corn)): 0%; pest or weed control at 70 g/ha [1, 7]: 0%; pest or weed control at 70 g/ha [2, 8]: 90%; pest or weed control at 70 g/ha [4]: 50%; GR80 Value EPHHL [4]: 193 g ai/ha; pest or weed control at 70 g/ha [5, 9]: 5%; GR80 Value AMARE [5]: 112 g ai/ha; pest or weed control at 70 g/ha [6]: 0%; GR80 Value ECHCG ([6]; dose for 80% visual injury): >280 g ai/ha
4 | COC(=O)c1nc(CCC(F)(F)F)c(Cl)c(N)c1Cl [Compound F5, methyl 4-amino-3,5-dichloro-6-(3,3,3-trifluoropropyl)picolinate] |  | 0 |  | 0 |  | 0 |  |  | 60 |  |  |  | 0 |  |  | 0 |  | 0 |  | 0 | 
5 | C=C(F)c1cc(N)c(Cl)c(C(=O)OC)n1 [Compound F6, methyl 4-amino-3-chloro-6-(1-fluorovinyl)picolinate] |  | 0 |  | 0 |  | 0 |  |  | 20 |  |  |  | 90 |  |  | 60 |  | 40 |  | 0 | 
6 | COC(=O)c1nc(C(F)(F)F)cc(N)c1Cl [Prior Art 1, reference compound] |  |  |  |  | 95 |  |  |  |  |  | 85 | 100 |  |  | 95 |  | 100 |  | 0 |  | % Visual Growth Reduction ORYSA (Oryza sativa L. (rice); 35 g ai/ha): 0%; plant injury at 35 g/ha (Oryza sativa L. (rice); 35 g ai/ha): 0%; plant injury at 35 g/ha (Zea mays L. (corn)): 0%; GR80 Values VIOTR [1, 11]: 121 g/ha; pest or weed control at 35 g/ha [3]: 80%; pest or weed control at 35 g/ha [4]: 80%; pest or weed control at 70 g/ha [4]: 85%; % Visual Growth Reduction AMARE ([5]; 140 g ai/ha, foliar post-emergent, scored after 14 days): 100%; pest or weed control at 70 g/ha [5, 9]: 80%; pest or weed control at 35 g/ha [6]: 0%; pest or weed control at 70 g/ha [6]: 0%; GR80 Values ECHCG [6, 11]: >140 g/ha
